Measured values published in patent publication US10464925B2, “Methods to induce targeted protein degradation through bifunctional molecules” (Dana-Farber Cancer Institute, Inc., priority 2015, dated 2019).
pIC50: −log10 of the molar value. Like-named read-outs stand apart in the source and are kept apart here.

Legend:
[1] = test system: IKZF1 adjoined to nanoluciferase (Nluc); experiment: IKZF1 Dual Luciferase Assay; type: cell-based; set-up: Nluc/Fluc IKZF1 Max Degradation: unit: %; conditions: 293 FT cells, 4 hours; for pIC50: read-out: Nluc/Fluc IKZF1 IC50
CRBN-DDB1 = molecular target: T1, CRBN-DDB1 (Homo sapiens, UniProt Q96SW2); experiment: CRBN-DDB1 Ligand-Displacement AlphaScreen Assay (thalidomide competition); type: binding; conditions: read-out: CRBN alpha IC50;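 note: streptavidin donor and nickel chelate acceptor bead proximity signal after 30 min incubation, normalized with no-protein background as 0% and DMSO wells as 100% activity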
T1 construct: 6xHis (given for the complex); made in house; host or cells: Sf9 cells (Invitrogen), pFastBac

797 = experiment: Cell viability, 797 cells (Table 4); type: cell-based; conditions: read-out: IC50 (nM) 797
[2] = molecular target: T2, BRD4 adjoined to nanoluciferase (Nluc) (Homo sapiens, UniProt O60885+Q96SW2); experiment: BRD4 Dual Luciferase Assay; type: cell-based; conditions: for Emax: BRD4 remaining at Emax, read-out: BRD4− Emax (percent remaining);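 for all read-outs here: transduced reporter cells exposed to compound for 4 h, then Nluc and Fluc luminescence read, each normalized to DMSO controls and expressed as Nluc/Fluc ratio per well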
T2 construct: expressed in transfected cells

[3] = 4 hours, read-out: max degradation (dual luc)
[4] = read-out: BRD4 max degradation(%) Dual Luciferase

O=C1CCC(N2C(=O)c3cccc(O)c3C2=O)C(=O)N1 [Compound D-1, 2-(2,6-dioxopiperidin-3-yl)-4-hydroxyisoindoline-1,3-dione]
pIC50 [1]: < 4.30

O=C1CCC(N2C(=O)c3ccc([N+](=O)[O-])cc3C2=O)C(=O)N1 [Compound D-2, 2-(2,6-dioxopiperidin-3-yl)-5-nitroisoindoline-1,3-dione]
pIC50 (CRBN-DDB1): 5.38
pIC50 [1]: < 4.30

CC(=O)Nc1cccc2c1C(=O)N(C1CCC(=O)NC1=O)C2=O [Compound D-3, N-(2-(2,6-dioxopiperidin-3-yl)-1,3-dioxoisoindolin-4-yl)acetamide]
pIC50 (CRBN-DDB1): 6.18
Nluc/Fluc IKZF1 Max Degradation [1]: 38.24

Nc1cccc2c1C(=O)N(C1CCC(=O)NC1=O)C2=O [Compound D-4, 4-amino-2-(2,6-dioxopiperidin-3-yl)isoindoline-1,3-dione]
Nluc/Fluc IKZF1 Max Degradation [1]: 66.43

CC(=O)Nc1ccc2c(c1)C(=O)N(C1CCC(=O)NC1=O)C2=O [Compound D-5, N-(2-(2,6-dioxopiperidin-3-yl)-1,3-dioxoisoindolin-5-yl)acetamide]
pIC50 (CRBN-DDB1): 6.58
pIC50 [1]: < 4.30

Cc1nc2ccccc2c(=O)n1C1CCC(=O)NC1=O [Compound D-9, 3-(2-methyl-4-oxoquinazolin-3(4H)-yl)piperidine-2,6-dione]
pIC50 (CRBN-DDB1): 4.84
Nluc/Fluc IKZF1 Max Degradation [1]: 67.23

O=C1CCC(N2C(=O)c3cccc([N+](=O)[O-])c3C2=O)C(=O)N1 [Compound D-10, 2-(2,6-dioxopiperidin-3-yl)-4-nitroisoindoline-1,3-dione]
pIC50 (CRBN-DDB1): 5.49
pIC50 [1]: < 4.30

Cc1nc2ccccc2c(=O)n1C1CC(=O)NC1=O [Compound D-11, 3-(2-methyl-4-oxoquinazolin-3(4H)-yl)pyrrolidine-2,5-dione]
pIC50 (CRBN-DDB1): 3.90
pIC50 [1]: < 4.30

O=C1CCC(N2C(=O)c3ccc(C(=O)O)cc3C2=O)C(=O)N1 [Compound D-13, 2-(2,6-dioxopiperidin-3-yl)-1,3-dioxoisoindoline-5-carboxylic acid]
pIC50 [1]: < 4.30

Cc1nc2cccc(N)c2c(=O)n1C1CCC(=O)NC1=O [Compound D-17, 3-(5-amino-2-methyl-4-oxoquinazolin-3(4H)-yl)piperidine-2,6-dione]
Nluc/Fluc IKZF1 Max Degradation [1]: 67.59

O=C1CCC(N2C(=O)c3ccc(NCc4ccco4)cc3C2=O)C(=O)N1 [Compound D-28, 2-(2,6-dioxopiperidin-3-yl)-5-((furan-2-ylmethyl)amino)isoindoline-1,3-dione]
pIC50 (CRBN-DDB1): 7.40

CC(C)(C)OC(=O)NCCNc1cccc2c1C(=O)N(C1CCC(=O)NC1=O)C2=O [Compound D-29, tert-butyl (2-((2-(2,6-dioxopiperidin-3-yl)-1,3-dioxoisoindolin-4-yl)amino)ethyl)carbamate]
pIC50 (CRBN-DDB1): 6.85

O=C1CCC(N2C(=O)c3ccc(NC(=O)CCl)cc3C2=O)C(=O)N1 [Compound D-32, 2-chloro-N-(2-(2,6-dioxopiperidin-3-yl)-1,3-dioxoisoindolin-5-yl)acetamide]
pIC50 (CRBN-DDB1): 7.67

O=C1CCC(N2C(=O)c3c(Cl)ccc(Cl)c3C2=O)C(=O)N1 [Compound D-51, 4,7-dichloro-2-(2,6-dioxopiperidin-3-yl)isoindoline-1,3-dione]
pIC50 (CRBN-DDB1): 5.93

C[C@@]1(N2C(=O)c3cccc(O)c3C2=O)CCC(=O)NC1=O [Compound D-52, (R)-4-hydroxy-2-(3-methyl-2,6-dioxopiperidin-3-yl)isoindoline-1,3-dione]
pIC50 (CRBN-DDB1): 4.40

C[C@]1(N2C(=O)c3cccc(O)c3C2=O)CCC(=O)NC1=O [Compound D-53, (S)-4-hydroxy-2-(3-methyl-2,6-dioxopiperidin-3-yl)isoindoline-1,3-dione]
pIC50 (CRBN-DDB1): 4.25

C[C@@]1(N2C(=O)c3cccc(OCC(=O)O)c3C2=O)CCC(=O)NC1=O [Compound D-54, (R)-2-((2-(3-methyl-2,6-dioxopiperidin-3-yl)-1,3-dioxoisoindolin-4-yl)oxy)acetic acid]
pIC50 (CRBN-DDB1): < 4.30

C[C@]1(N2C(=O)c3cccc(OCC(=O)O)c3C2=O)CCC(=O)NC1=O [Compound D-55, (S)-2-((2-(3-methyl-2,6-dioxopiperidin-3-yl)-1,3-dioxoisoindolin-4-yl)oxy)acetic acid]
pIC50 (CRBN-DDB1): < 4.30

O=C1CCC(N2C(=O)c3cccc([N+](=O)[O-])c3C2=O)C(=O)N1 [Compound D-56]
pIC50 (CRBN-DDB1): 5.51

O=C1CCC(N2C(=O)c3ccc(Br)cc3C2=O)C(=O)N1 [Compound D-58]
pIC50 (CRBN-DDB1): 6.15

CCOc1cccc2c1C(=O)N(C1CCC(=O)N(CC)C1=O)C2=O [Compound D-59]
pIC50 (CRBN-DDB1): < 4.30

CCOc1cccc2c1C(=O)N(C1CCC(=O)NC1=O)C2=O [Compound D-60]
pIC50 (CRBN-DDB1): 6.59

O=C1CCC(N2C(=O)c3ccc([N+](=O)[O-])cc3C2=O)C(=O)N1 [Compound D-61]
pIC50 (CRBN-DDB1): 5.58

O=C(O)COc1cccc2c1C(=O)N(C1CCC(=O)NC1=O)C2=O [Compound D-64]
pIC50 (CRBN-DDB1): 5.67

COC(=O)COc1cccc2c1C(=O)N(C1CCC(=O)NC1=O)C2=O [Compound D-65]
pIC50 (CRBN-DDB1): 5.95

COc1cc(C(=O)NCCCCNC(=O)COc2cccc3c2C(=O)N(C2CCC(=O)NC2=O)C3=O)ccc1Nc1ccc2c(n1)N(C1CCCC1)[C@H](C)C(=O)N2C (stereo partly drawn) [dBET16]
IC50 797: 4900 nM

Cc1cnc(Nc2ccc(N3CCN(C(=O)CCCNC(=O)COc4cccc5c4C(=O)N(C4CCC(=O)NC4=O)C5=O)CC3)cc2)nc1Nc1cccc(S(=O)(=O)NC(C)(C)C)c1 (stereo not drawn) [dBET20]
IC50 797: 14700 nM
Dmax [2, 3]: 7.04%
Dmax [2, 4]: < 10%

Cc1sc2c(c1C)C(c1ccc(Cl)cc1)=N[C@@H](CC(=O)NCCCCCCCCOc1cccc3c1C(=O)N(C1CCC(=O)NC1=O)C3=O)c1nnc(C)n1-2 (stereo partly drawn) [dBET21]
IC50 797: 630 nM
Emax [2]: 78.1%
Dmax [2, 4]: 21%

Cc1sc2c(c1C)C(c1ccc(Cl)cc1)=N[C@@H](CC(=O)NCCOCCOCCNC(=O)COc1cccc3c1C(=O)N(C1CCC(=O)NC1=O)C3=O)c1nnc(C)n1-2 (stereo partly drawn) [dBET24]
Conc@Emax [2]: 5 µM
Dmax [2, 3]: 50.4%
Emax [2]: 43%
Dmax [2, 4]: 50%

COC(=O)C[C@@H]1N=C(c2ccc(Cl)cc2)c2c(sc(C)c2C(=O)NCCCCNC(=O)COc2cccc3c2C(=O)N(C2CCC(=O)NC2=O)C3=O)-n2c(C)nnc21 (stereo partly drawn) [dBET25]
IC50 797: 6860 nM
Dmax [2, 3]: 41.7%
Dmax [2, 4]: 42%

COC(=O)C[C@@H]1N=C(c2ccc(Cl)cc2)c2c(sc(C)c2C(=O)NCCCCCCCCNC(=O)COc2cccc3c2C(=O)N(C2CCC(=O)NC2=O)C3=O)-n2c(C)nnc21 (stereo partly drawn) [dBET26]
IC50 797: 7020 nM
Dmax [2, 3]: 39.9%
Dmax [2, 4]: 40%

Cc1sc2c(c1C)C(c1ccc(Cl)cc1)=N[C@@H](CC(=O)NCCOCCOc1cccc3c1C(=O)N(C1CCC(=O)NC1=O)C3=O)c1nnc(C)n1-2 (stereo partly drawn) [dBET27]
Conc@Emax [2]: 0.5 µM
Dmax [2, 3]: 30%
Emax [2]: 67.3%
Dmax [2, 4]: 30%

Cc1sc2c(c1C)C(c1ccc(Cl)cc1)=N[C@@H](CC(=O)NCCCCCCOc1cccc3c1C(=O)N(C1CCC(=O)NC1=O)C3=O)c1nnc(C)n1-2 (stereo partly drawn) [dBET29]
Conc@Emax [2]: 0.05 µM
Dmax [2, 3]: 19%
Emax [2]: 75.5%
Dmax [2, 4]: 19%

Cc1c(C(=O)NCCCCCCCCNC(=O)COc2cccc3c2C(=O)N(C2CCC(=O)NC2=O)C3=O)sc2c1C(c1ccc(Cl)cc1)=N[C@@H](CC(=O)NCCCN1CCN(C)CC1)c1nnc(C)n1-2 (stereo partly drawn) [dBET31]
Emax [2]: 45.6%

Cc1sc2c(c1C)C(c1ccc(Cl)cc1)=N[C@@H](CC(=O)NCCCCNC(=O)CNc1cccc3c1CN(C1CCC(=O)NC1=O)C3=O)c1nnc(C)n1-2 (stereo partly drawn) [dBET35]
IC50 797: 372 nM
Dmax [2, 3]: 11.7%
Dmax [2, 4]: 12%

Cc1sc2c(c1C)C(c1ccc(Cl)cc1)=N[C@@H](CC(=O)NCCCCNC(=O)Cc1cccc3c1C(=O)N(C1CCC(=O)NC1=O)C3=O)c1nnc(C)n1-2 (stereo partly drawn) [dBET36]
IC50 797: 725 nM

Cc1sc2c(c1C)C(c1ccc(Cl)cc1)=N[C@@H](CC(=O)NCCCCCC(=O)NCc1cccc3c1C(=O)N(C1CCC(=O)NC1=O)C3=O)c1nnc(C)n1-2 (stereo partly drawn) [dBET37]
IC50 797: 1020 nM
Dmax [2, 3]: 46.4%
Dmax [2, 4]: 46%

Cc1sc2c(c1C)C(c1ccc(Cl)cc1)=N[C@@H](CC(=O)NCCCOCCCNC(=O)COc1cccc3c1C(=O)N(C1CCC(=O)NC1=O)C3=O)c1nnc(C)n1-2 (stereo partly drawn) [dBET38]
IC50 797: 770 nM

Cc1sc2c(c1C)C(c1ccc(Cl)cc1)=N[C@@H](CC(=O)NCCOCCOCCOc1cccc3c1C(=O)N(C1CCC(=O)NC1=O)C3=O)c1nnc(C)n1-2 (stereo partly drawn) [dBET40]
IC50 797: 299 nM
Dmax [2, 4]: < 10%

Cc1sc2c(c1C)C(c1ccc(Cl)cc1)=N[C@@H](CC(=O)NCc1ccc(CNC(=O)COc3cccc4c3C(=O)N(C3CCC(=O)NC3=O)C4=O)cc1)c1nnc(C)n1-2 (stereo partly drawn) [dBET41]
IC50 797: 726 nM

Cc1sc2c(c1C)C(c1ccc(Cl)cc1)=N[C@@H](CC(=O)NCCCCC(=O)Nc1cccc3c1CN(C1CCC(=O)NC1=O)C3=O)c1nnc(C)n1-2 (stereo partly drawn) [dBET42]
IC50 797: 7720 nM
Dmax [2, 3]: 10%
Dmax [2, 4]: 10%

Cc1sc2c(c1C)C(c1ccc(Cl)cc1)=N[C@@H](CC(=O)NCCCCCCC(=O)Nc1cccc3c1CN(C1CCC(=O)NC1=O)C3=O)c1nnc(C)n1-2 (stereo partly drawn) [dBET43]
IC50 797: 2250 nM
Dmax [2, 3]: 13%
Dmax [2, 4]: 13%

Cc1sc2c(c1C)C(c1ccc(Cl)cc1)=N[C@@H](CC(=O)NCCCCCCCC(=O)Nc1cccc3c1CN(C1CCC(=O)NC1=O)C3=O)c1nnc(C)n1-2 (stereo partly drawn) [dBET44]
IC50 797: 719 nM
Dmax [2, 4]: < 10%

COc1cc(C(=O)NCCCCCCCCNC(=O)COc2cccc3c2C(=O)N(C2CCC(=O)NC2=O)C3=O)ccc1Nc1ccc2c(n1)N(C1CCCC1)[C@H](C)C(=O)N2C (stereo partly drawn) [dBET45]
IC50 797: 3450 nM

COc1cc(C(=O)NCCCOCCOCCOCCCNC(=O)COc2cccc3c2C(=O)N(C2CCC(=O)NC2=O)C3=O)ccc1Nc1ccc2c(n1)N(C1CCCC1)[C@H](C)C(=O)N2C (stereo partly drawn) [dBET46]
IC50 797: 9450 nM
